Like-named read-outs stand apart in the source and are kept apart here.
What was measured:
DCLK1 = target: T1, DCLK1 (Homo sapiens, UniProt O15075); experiment: Differential scanning fluorimetry of control protein DCLK1; type: binding; conditions: DSF
T1 construct: made in house
T1 sequence (O15075 372-649 limits assumed): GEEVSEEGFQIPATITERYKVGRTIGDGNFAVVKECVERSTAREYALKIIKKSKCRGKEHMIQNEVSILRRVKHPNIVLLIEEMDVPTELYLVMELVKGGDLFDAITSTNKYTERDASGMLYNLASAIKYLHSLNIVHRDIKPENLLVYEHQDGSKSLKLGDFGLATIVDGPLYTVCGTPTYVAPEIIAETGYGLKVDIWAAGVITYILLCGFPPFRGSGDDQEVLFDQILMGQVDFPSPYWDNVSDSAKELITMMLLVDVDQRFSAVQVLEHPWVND
Experimental: Doublecortin-like kinase domain 1 (DCLK1) used as a control protein in differential scanning fluorimetry experiments and was recombinantly expressed and purified according to the previously described protocol ([Patel et al., 2016]).
(§1) Differential scanning fluorimetry assays were performed as described previously ([Murphy et al., 2013], [2014a], [2014b]) using a Rotor-Gene Q PCR. Briefly, purified PfRh5 was diluted in 20 mM Tris pH 8.0, 150 mM NaCl to achieve 10 μg per reaction and assayed with the appropriate concentration of inhibitor in a total reaction volume of 25 μL. SYPRO Orange (Molecular Probes, CA) was used as a fluorescence probe and detected at 530 nm. Compounds were titrated at final concentrations ranging from 5 μM to 80 μM final. Data was transformed and plotted using GraphPad Prism. Shown data are representative means of two technical experiments.

P. falciparum D10 = P. falciparum D10 growth inhibition by flow cytometry; type: cell-based; conditions: Plasmodium falciparum, D10; growth inhibition by flow cytometry, 12-point dilution series, 72 h
Experimental: Pranlukast and selected analogues were then evaluated in a P. falciparum parasite viability assay. For this assay, we followed the procedure described by [Gamo et al. (2010)], that used lactate dehydrogenase (LDH) as a readout for parasite viability. In this assay, 3D7 parasites were incubated over 72 h in the presence of increasing concentrations of compounds. […]. For a comparison, selected compounds were incubated in the presence of P. falciparum D10 parasites for 72 h (Table 1, Fig. S14) and growth inhibition measured by flow cytometry. […].

[1] = Solubility in SPR running buffer; type: physicochemical
D10-PfPHG parasites = experiment: Schizont rupture assay; type: cell-based, P. falciparum
Experimental: D10-PfPHG parasites ([Wilson et al., 2010]) were cultured in human O^+ erythrocytes in RPMI-HEPES culture medium (pH 7.4, 50 μg/mL hypoxanthine, 25 mM NaHCO3, 20 μg/mL gentamicin, 0.5% Albumax II (Thermo Fisher Scientific) according to established protocols ([Trager and Jensen, 1976]) and maintained in an atmosphere of 1% O2, 4% CO2 and 95% N2. For assessment of merozoite invasion after schizont rupture, parasites were tightly synchronised to a 4 h window of invasion using heparin ([Boyle et al., 2010]; [Wilson et al., 2015]) and then grown for a further 42 h. Drug treatments were setup at 2–3% parasitaemia and 1% haematocrit in 50 μL volumes with a 1 in 10 dilution of drug added when parasites were 44–48 h post invasion. After 6 h of drug treatment and immediately after invasion was expected to finish, the assays were treated with 5 μg/mL ethidium bromide (EtBr, Bio-Rad) for 5 min prior to flow cytometry assessment of parasitaemia using a Becton Dickinson Accuri. Gating of newly invaded rings, free merozoites and unruptured late stages was achieved as per published methods ([Wilson et al., 2013]).
To determine if the modest activity of pranlukast and analogues in the parasite viability assay was a consequence of invasion inhibition, rather than inhibition at another stage of blood stage parasite development, we performed an assay that measures the effect of compound treatment on P. falciparum D10 asexual stage transition between late schizont and ring stages ([Wilson et al., 2013]). In this assay, highly synchronised mature schizont-stage parasites were incubated with pranlukast and selected analogues at 50 and 100 μM and the transition to newly invaded ring stage parasites was quantified by flow cytometry. In parallel, the rate of schizont rupture and merozoite release was quantified to assess whether any reduction in newly invaded ring stages was due to a block affecting merozoite release or development. […] Neither DMSO (at the maximal concentration used for the drug treatments of 0.1%) or a non-invasion inhibitory mAb control caused a reduction in merozoite invasion. […] […].

[2] = tested on: P. falciparum 3D7 parasites; experiment: P. falciparum parasite viability assay (LDH); type: cell-based; conditions: LDH activity, 10-point dilution series, 72 h, read-out: P. falciparum 3D7 EC50
Experimental: A modified version of the lactate dehydrogenase (LDH) assay described by [Gamo et al. […] Compounds were pre-dispensed in 384-well plates, RPMI/Albumax growth media was added, and P. falciparum inoculated. Plates were incubated for 72 h and then frozen at −80 °C overnight. LDH activity was quantified with the modified cofactor 3-acetylpyridine adenine dinucleotide (APAD) (Sigma Aldrich) by measuring absorbance of the tetrazolium indicator nitro blue tetrazolium (NBT) (Sigma Aldrich) at 650 nm. Parasite conditions: […] Growth inhibition assay: […] Intermediate compound dilution plates were prepared by dispensing 5 μL from each well of the compound master plate into 11.5 μL of RPMI/Albumax growth media. Duplicate assay plates (384-well) were then prepared by dispensing 0.5 μL of compound from the intermediate dilution plates into 9.5 μL of RPMI/Albumax growth media. […] The final DMSO concentration was 0.1% (to limit toxicity to parasites). […] Evaluation of parasite growth measuring lactate dehydrogenase (LDH) activity: After 72 h of incubation, plates were frozen at −80 °C overnight and then thawed at room temperature for at least 4 h. […] Plates were shaken to ensure mixing and absorbance at 650 nm was monitored using a PerkinElmer Envision plate reader after 30 min of incubation at room temperature. Data were normalised to percent growth inhibition using positive and negative controls and analyzed using TIBCO Spotfire software.

PfRh5 = PfRh5 (Plasmodium falciparum, UniProt Q8IFM5); experiment: Differential scanning fluorimetry of Rh5; type: binding, P. falciparum; conditions: DSF
Sequence of PfRh5 (Q8IFM5 24-526): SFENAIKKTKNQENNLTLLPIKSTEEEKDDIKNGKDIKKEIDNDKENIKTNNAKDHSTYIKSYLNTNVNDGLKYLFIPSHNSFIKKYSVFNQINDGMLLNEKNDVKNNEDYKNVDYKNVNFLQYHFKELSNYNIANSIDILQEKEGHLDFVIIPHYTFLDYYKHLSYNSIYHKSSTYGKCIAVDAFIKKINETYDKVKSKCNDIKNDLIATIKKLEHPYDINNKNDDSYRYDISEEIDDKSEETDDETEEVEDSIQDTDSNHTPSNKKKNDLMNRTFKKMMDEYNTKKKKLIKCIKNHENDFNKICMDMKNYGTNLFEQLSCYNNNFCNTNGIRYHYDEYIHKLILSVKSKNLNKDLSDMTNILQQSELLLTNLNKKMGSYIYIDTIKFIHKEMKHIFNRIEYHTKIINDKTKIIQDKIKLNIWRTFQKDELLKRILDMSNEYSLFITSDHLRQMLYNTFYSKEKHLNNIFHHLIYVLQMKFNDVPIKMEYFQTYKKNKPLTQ
Experimental: as §1

HepG2 cells = experiment: HepG2 growth inhibition assay; type: cell-based; conditions: Homo sapiens, 10-point dilution series, 48 h, Cell Titre-Glo
Experimental: HepG2 cells were cultured in Dulbeccos modified eagle's medium (DMEM) supplemented with 10% fetal calf serum (FCS), in a humidified incubator at 37 °C and 5% CO2. Ten-point compound titration assays were performed by treating cells (1 × 10^3) for 48 h in 384 well tissue culture treated plates (Greiner). Cytotoxicity was determined using Cell Titer Glo (Promega) and calculated as a percentage using DMSO as a positive growth control and 10 μM Bortezomib as a negative growth control. EC50 values were calculated using a 4-parameter log dose, non-linear regression analysis, with sigmoidal dose response (variable slope) curve fit using Graph Pad Prism (version 6.05). 0 and 100 constraint parameters were used for curve fitting. […]

For `O=C(Nc1cccc2c(=O)cc(-c3nnn[nH]3)oc12)c1ccc(OCCCCc2ccccc2)cc1` [pranlukast], the “effect on Tm of DCLK1” value (DCLK1; concentration up to 20 μM) was “did not have a significant impact on the Tm of DCLK1”, the “effect on Tm of DCLK1” value (DCLK1; high concentration (>40 μM)) was “markedly lower Tm” and the EC50 (P. falciparum D10) was 28 µM. The “solubility in the SPR running buffer” value [1] was “limited solubility”, the “merozoite invasion (newly invaded early ring stages)” value (D10-PfPHG parasites; 50 and 100 μM, 6 h, flow cytometry) was “substantial reduction in the numbers of merozoites that had invaded and formed early ring stages” and the free merozoite numbers (D10-PfPHG parasites; lowest concentration tested (50 μM)) was “minimal loss in free merozoite numbers”. For the same compound, the EC50 [2] was 40 µM, the EC50 ([2]; Plasmodium falciparum, 3D7, 72 h) was 39 µM and the “effect on Tm of Rh5” value (PfRh5; concentrations of 0–20 μM) was “dose dependent increase in the Tm of Rh5”. For the same compound, the “effect on Tm of Rh5” value (PfRh5; high concentration (>40 μM)) was “markedly lower Tm” and the EC50 (HepG2 cells) was greater than 50 µM.

Source: paper PMC7645381, “Development and application of a high-throughput screening assay for identification of small molecule inhibitors of the P. falciparum reticulocyte binding-like homologue 5 protein” (International Journal for Parasitology: Drugs and Drug …, 2020)
